Consider 11 compounds from patent US20250082763A1, “COMBINATION DRUG FOR TREATING TRIPLE-NEGATIVE BREAST CANCER” (HINOVA PHARMACEUTICALS INC., priority 2022, published 2025).

pIC50: −log10 of the molar value. Like-named read-outs stand apart in the source and are kept apart here.

What all share (type): cell-based
Assay [1] relates to MDA-MB-453. Put plainly: Antiproliferation, CellTiter-Glo, 5 days, MDA-MB-453. The following applies: MDA-MB-453, AR+ TNBC. The method, then: (§1) For MDA-MB-453, MFM-223, SUM159PT, MDA-MB-468, and HCC1937, 4,000, 3,000, 1,000, 3,000, and 3,000 cells were plated per well in 96-well microplates (Corning Inc), respectively. Cells were treated with serial dilutions of tested compounds with the maximum working concentration of 10 μM. Cell survival was measured 5 days later using a CellTiter-Glo luminescent cell viability assay kit (Promega Corporation). Luminescence was recorded by FLUOstar Omega microplate reader (BMG Labtech). Half maximal inhibitory concentration (IC50) was determined with GraphPad Prism using baseline correction (by normalizing to dimethyl sulfoxide (DMSO) control)
Background: Cellular ATP, detected with luciferase, serves as a proxy for viable cell number.

Assay [2] deals with MFM-223. Put plainly: Antiproliferation, CellTiter-Glo, 5 days, MFM-223. The conditions noted are these: MFM-223, AR+ TNBC. The protocol:
as §1

In assay [3] the test system is MDA-MB-453 cells. The assay can be described thus: Inhibition of proliferation of MDA-MB-453 cells (CCK-8 or CTG, 7-10 days). The following applies: co-incubation 7-10 days, CCK-8 or CTG, read-out: IC50 values against MDA-MB-453 cells. The method, then:
Triple negative breast cancer MDA-MB-453 cells in logarithmic growth stage were inoculated into a 96-well plate at a concentration of 4×10^3 cells/well, and then incubated in an incubator at 37° C., 5% CO2, and saturated humidity for 24 h or 48 h. To the negative control well, was added RPMI 1640 cell medium containing 10% fetal bovine serum in the same volume as the drug. After cultured for 24 h or 48 h, to the 96-well plate, were added AR PROTACs compounds 162, 177, 230, 259, 279, 281, 282, 325, 357, 400, ARV-110, ARV-766 and AR inhibitor HC-1119, respectively. The concentrations of compounds 177, 230, 259, 279, 281, 282, 325, 357, 400, ARV-110, and ARV-766 are 0 μM, 0.002 μM, 0.005 μM, 0.014 μM, 0.041 μM, 0.123 μM, 0.370 μM, 1.111 μM, 3.333 μM or 10 μM; while the concentrations of HC-1119 are 0 μM, 1.23 μM, 3.70 μM, 11.11 μM, 33.33 μM or 100 μM.
(§2) After addition of the drugs and co-incubation for 7-10 days, 10 μL of CCK-8 was added to each well, and then the plate was further cultured for 2 h. The absorbance value (OD) of each well was measured using a microplate reader at a wavelength of 450 nm. The survival rate was calculated using Prism software, the relative survival rate=(OD value of drug well/OD value of control well)×100%. Alternatively, 100 μL of medium was removed from each well, and then 50 μL of CTG was added. The plate was shaken in the dark for 2 min, allowed to stand for 10 min, and then measured using a microplate reader in Luminescence mode. Prism software was used to calculate the survival rate, the relative survival rate=(the RLU value of drug well/the RLU value of control well)×100%.

The test system of assay [4] is MDA-MB-453 cells. Put plainly: Combination with PI3K inhibitor Alpelisib, proliferation of MDA-MB-453 cells, Combination Index. The conditions noted are these: molar ratio to Alpelisib 1:27-9:1, 7 days. The protocol: Triple negative breast cancer MDA-MB-453 cells in logarithmic growth stage were inoculated into a 96-well plate at a concentration of 4×10^3 cells/well, and then incubated in an incubator at 37° C., 5% CO2, and saturated humidity for 24 h. To the negative control wells, were added RPMI 1640 cell culture medium containing 10% fetal bovine serum in the same volume as the drug. After cultured for 24 h, to the 96-well plate, were sequentially added AR PROTACs compounds 279, 281, 282, ARV-110, ARV-766 and PI3K inhibitor Alpelisib, respectively.
as §2, with “7” for “7-10”

For assay [5], the system named is MDA-MB-468. The assay can be described thus: Antiproliferation, CellTiter-Glo, 5 days, MDA-MB-468. The conditions noted are these: MDA-MB-468, AR− TNBC. The method, then: as §1
For assay [6], the system named is SUM159PT. The assay can be described thus: Antiproliferation, CellTiter-Glo, 5 days, SUM159PT. The conditions noted are these: AR+ TNBC. The method, then:
Cells were treated with serial dilutions of tested compounds with the maximum working concentration of 10 μM. Cell survival was measured 5 days later using a CellTiter-Glo luminescent cell viability assay kit (Promega Corporation). Luminescence was recorded by FLUOstar Omega microplate reader (BMG Labtech). Half maximal inhibitory concentration (IC50) was determined with GraphPad Prism using baseline correction (by normalizing to dimethyl sulfoxide (DMSO) control)

For assay [7], the system named is HCC1937. Put plainly: Antiproliferation, CellTiter-Glo, 5 days, HCC1937. The conditions noted are these: HCC1937, AR− TNBC. The method, then: as §1
For assay [8], the system named is MDA-MB-453 cells. The assay can be described thus: Combination with PI3K inhibitor Idelalisib, proliferation of MDA-MB-453 cells, Combination Index. The conditions noted are these: molar ratio to Idelalisib 1:270-1:3.333, 7-10 days. The protocol:
Triple negative breast cancer MDA-MB-453 cells in logarithmic growth stage were inoculated into a 96-well plate at a concentration of 4×10^3 cells/well, and then incubated in an incubator at 37° C., 5% CO2, and saturated humidity for 24 h. To the negative control wells, were added RPMI 1640 cell culture medium containing 10% fetal bovine serum in the same volume as the drug. After cultured for 24 h, to the 96-well plate, were sequentially added AR PROTACs compounds 279, 281, 282, ARV-110, ARV-766 and PI3K inhibitor Idelalisib, respectively.
as §2, with “adding” for “addition of”, “co-incubating” for “co-incubation”

Assay [9] concerns MDA-MB-453 cells. Put plainly: Combination with PI3K inhibitor Duvelisib, proliferation of MDA-MB-453 cells, Combination Index. The conditions noted are these: molar ratio to Duvelisib 1:30-1:1.111, 7-10 days. The protocol: Triple negative breast cancer MDA-MB-453 cells in logarithmic growth stage were inoculated into a 96-well plate at a concentration of 4×10^3 cells/well, and then incubated in an incubator at 37° C., 5% CO2, and saturated humidity for 24 h. To the negative control wells, were added RPMI 1640 cell culture medium containing 10% fetal bovine serum in the same volume as the drug. After cultured for 24 h, to the 96-well plate, were sequentially added AR PROTACs compounds 279, 281, 282, ARV-110 and PI3K inhibitor Duvelisib, respectively.
as §2, with “adding” for “addition of”, “co-incubating” for “co-incubation”

The test system of assay [10] is MDA-MB-453 cells. Put plainly: Combination with chemotherapeutic drug Paclitaxel, proliferation of MDA-MB-453 cells, Combination Index. The following applies: molar ratio to Paclitaxel 20:1-5000:1, 7 days. The protocol: Triple negative breast cancer MDA-MB-453 cells in logarithmic growth stage were inoculated into a 96-well plate at a concentration of 4×10^3 cells/well, and then incubated in an incubator at 37° C., 5% CO2, and saturated humidity for 24 h. To the negative control wells, were added RPMI 1640 cell culture medium containing 10% fetal bovine serum in the same volume as the drug. After cultured for 24 h, to the 96-well plate, were sequentially added AR PROTACs compounds 279, 281, 282, ARV-110 and chemotherapeutic drug Paclitaxel, respectively.
as §2, with “adding” for “addition of”, “co-incubating” for “co-incubation”, “7” for “7-10”

Turning to `COc1cc(O[C@H]2C(C)(C)[C@H](NC(=O)c3ccc(N4CCC(CN5CCN(c6ccc(C(=O)N[C@H]7CCC(=O)NC7=O)c(F)c6)CC5)CC4)cc3)C2(C)C)ccc1C#N` [ARV-766], the pIC50 – broadly, the IC50 on a negative log10 scale, so that one unit is a factor of ten – is 5.96 in assay [1] (Homo sapiens, 120 h); 5.27 in [2] (Homo sapiens, 120 h); at least 5.70 in [3] (Homo sapiens); under 5.00 in assay [5] (Homo sapiens, 120 h); 6.42 in [6] (Homo sapiens, SUM-159-PT, 120 h); under 5.00 in [7] (Homo sapiens, 120 h). Moreover, the “effect of the combination with Alpelisib on inhibiting proliferation (CI<1 = synergistic)” value in assay [4] is reported as “synergistic effect”. In addition, the “effect of the combination with Idelalisib on inhibiting proliferation (CI<1 = synergistic)” value in assay [8] was “synergistic effect”.
On to `N#Cc1ccc(O[C@H]2CC[C@H](NC(=O)c3ccc(N4CCC5(CCN(CC6CCN(c7cc8c(cc7F)C(=O)N(C7CCC(=O)NC7=O)C8=O)CC6)C5)C4)nn3)CC2)cc1Cl` (stereo partly shown) [Compound 162], for which, in [3] (Homo sapiens), the negative logarithm of the IC50 (pIC50) was under 5.70.
The same measure, in the same setting: to `N#Cc1ccc(O[C@H]2CC[C@H](NC(=O)c3cnc(N4C[C@@H]5[C@@H](CN6CCN(c7ccc8c(c7)C(=O)N(C7CCC(=O)NC7=O)C8=O)CC6)[C@@H]5C4)cn3)CC2)cc1Cl` (stereo partly shown) [Compound 177] belongs under 5.70.
As for `N#Cc1ccc(O[C@H]2CC[C@H](NC(=O)c3ccc(N4CCC(CN5CCC6(CC5)CN(c5ccc7c(c5)C(=O)N(C5CCC(=O)NC5=O)C7=O)C6)CC4)nn3)CC2)cc1Cl` (stereo partly shown) [Compound 230], in assay [3] (Homo sapiens), the pIC50 is under 5.70.
Still for that read-out and setting: the result for `N#Cc1ccc(O[C@H]2CC[C@H](NC(=O)c3ccc(N4CC5CN(CC6CCN(c7cc8c(cc7F)C(=O)N(C7CCC(=O)NC7=O)C8=O)CC6)CC5C4)nn3)CC2)cc1Cl` (stereo partly shown) [Compound 259] reads under 5.70.
As to `N#Cc1ccc(O[C@H]2CC[C@H](NC(=O)c3ccc(N4CCC(N5CCC6(CC5)CN(c5ccc7c(c5)C(=O)N(C5CCC(=O)NC5=O)C7=O)C6)CC4)nn3)CC2)cc1Cl` (stereo partly shown) [Compound 281], the pIC50 in [3] (Homo sapiens) is at least 5.70. For the same compound, the “effect of the combination with Alpelisib on inhibiting proliferation (CI<1 = synergistic)” value in assay [4] is recorded as “synergistic effect”. The “effect of the combination with Duvelisib on inhibiting proliferation (CI<1 = synergistic)” value in assay [9] is on record as “synergistic effect”. Moreover, in assay [8], the “effect of the combination with Idelalisib on inhibiting proliferation (CI<1 = synergistic)” value is listed as “synergistic effect”. Moreover, the “effect of the combination with Paclitaxel on inhibiting proliferation (CI<1 = synergistic)” value in assay [10] was “synergistic effect”.
Take `N#Cc1ccc(O[C@H]2CC[C@H](NC(=O)c3ccc(N4CC5(CCN(CC6CCN(c7ccc8c(c7)C(=O)N(C7CCC(=O)NC7=O)C8=O)CC6)CC5)C4)nn3)CC2)cc1Cl` (stereo partly shown) [Compound 282]: the negative logarithm of the IC50 (pIC50) in assay [3] (Homo sapiens) is at least 5.70. In addition, the “effect of the combination with Alpelisib on inhibiting proliferation (CI<1 = synergistic)” value in assay [4] was “synergistic effect”. The “effect of the combination with Duvelisib on inhibiting proliferation (CI<1 = synergistic)” value in assay [9] is listed as “synergistic effect”. The “effect of the combination with Idelalisib on inhibiting proliferation (CI<1 = synergistic)” value in [8] is “synergistic effect”. In assay [10], the “effect of the combination with Paclitaxel on inhibiting proliferation (CI<1 = synergistic)” value is recorded as “synergistic effect”.
For `CC1(C)[C@H](Oc2ccc(C#N)c(Cl)c2)C(C)(C)[C@H]1N1Cc2nc(C#C[C@H]3CC[C@H](N4CCN(c5ccc6c(c5)C(=O)N(C5CCC(=O)NC5=O)C6=O)CC4)CC3)ccc2C1=O` (stereo partly shown) [Compound 325], the negative logarithm of the IC50 (pIC50) in assay [3] (Homo sapiens) was under 5.70.
The same measure, in the same setting: to `CC1(C)[C@H](Oc2ccc(C#N)c(Cl)c2)C(C)(C)[C@@H]1N1Cc2nc(C#C[C@H]3C[C@H](N4CCN(c5cc6c(cc5F)C(=O)N(C5CCC(=O)NC5=O)C6=O)CC4)C3)ccc2C1=O` (stereo partly shown) [Compound 357] belongs at least 5.70.
As for `COc1cc(O[C@H]2C(C)(C)[C@H](N3Cc4nc(C#C[C@H]5CC[C@H](N6CCN(c7ccc8c(c7)C(=O)N(C7CCC(=O)NC7=O)C8=O)CC6)CC5)ccc4C3=O)C2(C)C)ccc1C#N` (stereo partly shown) [Compound 400], in assay [3] (Homo sapiens), the pIC50 is at least 5.70.
Regarding `CNC(=O)c1ccc(N2C(=S)N(c3ccc(C#N)c(C(F)(F)F)c3)C(=O)C2(C)C)cc1F` [HC-1119], the pIC50 was under 5.00 in assay [1]; under 5.00 in assay [2]; under 5.70 in [3]; under 5.00 in assay [5]; under 5.00 in assay [6]; under 5.00 in assay [7].
